From article PMC7614683, “A small molecule PI3Kα activator for cardioprotection and neuroregeneration” (Nature, 2023)
Like-named read-outs stand apart in the source and are kept apart here.

Key:
Experiment in all cases: SelectScreen Z-LYTE kinase activity assay (SI Table 6)
Assay type in all cases: biochemical
[1] = target: protein kinases of the Z-LYTE panel (Homo sapiens, UniProt Q9P0L2)
Outline: (§1)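 A counterscreen of 133 protein and 7 lipid kinases was run with one compound concentration, 1 μM 1938, in SelectScreen Adapta, Lantha or Z-LYTE assays.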

[2] = target: T1, protein kinases of the Z-LYTE panel (Homo sapiens, UniProt P54760)
T1 sequence (P54760 16-987): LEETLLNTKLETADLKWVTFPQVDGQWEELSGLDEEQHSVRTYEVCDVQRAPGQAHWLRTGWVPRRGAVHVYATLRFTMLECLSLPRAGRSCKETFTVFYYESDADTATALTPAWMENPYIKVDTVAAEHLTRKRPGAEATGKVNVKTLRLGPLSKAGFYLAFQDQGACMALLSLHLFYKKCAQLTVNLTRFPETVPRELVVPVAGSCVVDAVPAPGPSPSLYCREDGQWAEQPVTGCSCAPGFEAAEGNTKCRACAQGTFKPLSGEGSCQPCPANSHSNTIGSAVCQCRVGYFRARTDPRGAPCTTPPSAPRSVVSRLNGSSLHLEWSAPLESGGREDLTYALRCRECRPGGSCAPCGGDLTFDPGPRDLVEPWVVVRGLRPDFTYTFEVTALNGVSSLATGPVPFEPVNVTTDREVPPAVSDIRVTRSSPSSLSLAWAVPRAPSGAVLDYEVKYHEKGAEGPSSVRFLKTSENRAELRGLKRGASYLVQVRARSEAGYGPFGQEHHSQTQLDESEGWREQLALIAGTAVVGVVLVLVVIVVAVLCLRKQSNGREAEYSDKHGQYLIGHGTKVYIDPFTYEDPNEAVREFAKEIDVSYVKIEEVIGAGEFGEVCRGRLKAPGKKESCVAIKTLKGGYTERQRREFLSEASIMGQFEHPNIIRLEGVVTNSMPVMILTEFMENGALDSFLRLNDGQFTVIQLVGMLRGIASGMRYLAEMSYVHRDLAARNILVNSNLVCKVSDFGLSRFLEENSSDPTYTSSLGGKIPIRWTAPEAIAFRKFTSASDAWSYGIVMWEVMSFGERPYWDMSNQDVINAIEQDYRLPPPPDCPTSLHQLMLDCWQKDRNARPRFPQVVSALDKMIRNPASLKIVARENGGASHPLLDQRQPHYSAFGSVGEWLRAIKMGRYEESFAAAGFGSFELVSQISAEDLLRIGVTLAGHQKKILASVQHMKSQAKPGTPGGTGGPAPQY
Outline: as §1

[3] = target: T2, protein kinases of the Z-LYTE panel (Homo sapiens, UniProt O14920)
T2 sequence (O14920 1-756): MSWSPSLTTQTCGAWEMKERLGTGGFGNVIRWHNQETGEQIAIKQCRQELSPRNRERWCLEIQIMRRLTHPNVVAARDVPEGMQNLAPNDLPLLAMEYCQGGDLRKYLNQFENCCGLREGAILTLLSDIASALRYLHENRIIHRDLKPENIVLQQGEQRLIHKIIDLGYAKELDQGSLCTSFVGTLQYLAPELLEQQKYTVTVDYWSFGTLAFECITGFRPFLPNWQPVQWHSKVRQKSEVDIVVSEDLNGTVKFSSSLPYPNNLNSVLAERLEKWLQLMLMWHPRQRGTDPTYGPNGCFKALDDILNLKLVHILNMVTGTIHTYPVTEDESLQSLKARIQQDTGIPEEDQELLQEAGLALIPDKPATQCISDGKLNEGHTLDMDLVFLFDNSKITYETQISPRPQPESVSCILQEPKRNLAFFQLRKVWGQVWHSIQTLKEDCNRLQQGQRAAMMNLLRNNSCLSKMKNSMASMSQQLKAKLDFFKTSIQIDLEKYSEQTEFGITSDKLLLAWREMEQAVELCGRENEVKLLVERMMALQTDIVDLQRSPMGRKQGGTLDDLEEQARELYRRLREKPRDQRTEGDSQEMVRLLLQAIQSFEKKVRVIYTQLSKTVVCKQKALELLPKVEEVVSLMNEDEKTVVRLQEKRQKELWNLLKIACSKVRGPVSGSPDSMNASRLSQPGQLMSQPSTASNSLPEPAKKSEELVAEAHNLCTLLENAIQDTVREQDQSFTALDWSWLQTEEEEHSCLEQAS
Outline: as §1

Chain of protein kinases of the Z-LYTE panel (Homo sapiens, UniProt Q9P0L2) (Q9P0L2 whole entry): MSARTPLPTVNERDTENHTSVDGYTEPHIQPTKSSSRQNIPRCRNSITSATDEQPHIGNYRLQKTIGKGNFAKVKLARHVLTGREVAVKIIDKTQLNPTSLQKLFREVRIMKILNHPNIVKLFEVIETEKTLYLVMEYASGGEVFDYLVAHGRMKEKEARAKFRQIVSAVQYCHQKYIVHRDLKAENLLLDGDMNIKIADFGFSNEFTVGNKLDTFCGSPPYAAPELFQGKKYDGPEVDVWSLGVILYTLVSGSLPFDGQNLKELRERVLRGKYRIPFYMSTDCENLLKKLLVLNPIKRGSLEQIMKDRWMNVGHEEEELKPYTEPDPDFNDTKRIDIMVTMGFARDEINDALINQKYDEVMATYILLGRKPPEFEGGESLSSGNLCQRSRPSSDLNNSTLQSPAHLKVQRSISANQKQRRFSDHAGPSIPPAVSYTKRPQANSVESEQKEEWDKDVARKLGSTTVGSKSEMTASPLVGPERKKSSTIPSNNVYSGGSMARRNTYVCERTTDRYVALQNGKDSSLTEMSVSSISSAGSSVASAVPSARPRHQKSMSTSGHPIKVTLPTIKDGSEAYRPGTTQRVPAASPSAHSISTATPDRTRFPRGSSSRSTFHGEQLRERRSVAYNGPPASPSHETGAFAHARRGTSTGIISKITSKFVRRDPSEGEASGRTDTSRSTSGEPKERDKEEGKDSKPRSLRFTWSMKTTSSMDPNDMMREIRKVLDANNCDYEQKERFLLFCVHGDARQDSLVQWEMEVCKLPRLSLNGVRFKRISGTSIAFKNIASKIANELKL

Compound `CCN1CCN(c2ccc(Nc3cc(Nc4cccc5c4N(C(C)=O)CC5)ccn3)cc2)CC1` [Compound 1938] has an inhibition at 1 µM ([1]; read-out: % Inhibition Point 1) of 5.55%, an inhibition at 1 µM ([1]; read-out: % Inhibition Point 2) of 3.46% and an inhibition at 1 µM ([1]; read-out: % Inhibition mean) of 4.5%. It also gave an inhibition at 1 µM ([2]; read-out: % Inhibition Point 1) of 10%, an inhibition at 1 µM ([2]; read-out: % Inhibition Point 2) of -1.75% and an inhibition at 1 µM ([2]; read-out: % Inhibition mean) of 4%. The inhibition at 1 µM ([3]; read-out: % Inhibition Point 1) was 8.52%, the inhibition at 1 µM ([3]; read-out: % Inhibition Point 2) was 7% and the inhibition at 1 µM ([3]; read-out: % Inhibition mean) was 7.61%.
